The supplement of paper PMC11208160
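Note: IS621 bridge recombinase in Escherichia coli cells against a fixed T5 target plasmid.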

Experiment: recombinant UMI read abundance after kanamycin selection (control-corrected) (log10(CPM+1)); higher = more efficient recombination; extreme values may be limits of the assay; sequences stand for … in AGTGCAGAGAAAATCGGCCAGTTTTCTCTGCCTGCAGTCCGCATGCCGTGGGACCCCTTGGGTTCTAACCTGTTGCCTAGATTTATGCAGCGGACTGCCTTTCTCCCAAAGTGATAAACCGG…AGGTTGGTTTCACT; site = the 11-nt donor
Outline: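 Reported values are log10(CPM+1) from a pooled Escherichia coli screen of donor and donor-binding-loop pairs for the IS621 bridge recombinase. Selection used IPTG (0.07 mM) plus kanamycin, against unselected plating, each in two replicates. Recombinant UMIs were amplified across the donor–target junction, sequenced, converted to CPM, averaged over replicates and scaled by control-derived factors.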
For “CGACGTACATGGACCGGTTTTCCCGGTAATCCGTATTTGCT (site CGCCGTACTAG)”, the “recombinant UMI read abundance (log10)” value was 0.0167.
In the case of “CGACGTACATGGACCGGTTTTCCCGGTAATCCGTATTTGCT (site CGGCGTACTAG)”, the “recombinant UMI read abundance (log10)” value is reported as 0.688.
With “CGACGTACATGGACCGGTTTTCCCGGTAATCCGTATTTGCT (site CGTCGTACTAG)” the “recombinant UMI read abundance (log10)” value was 0.764.
In the case of “CGACTTGCATGGACCGGTTTTCCCGGTAATCCGTATTTGAT (site CGACTTGCTAT)”, the “recombinant UMI read abundance (log10)” value is reported as 2.39.
With “CGAGAGGCATGGACCGGTTTTCCCGGTAATCCGTATTTGGG (site CGAGAGGCTCC)” the “recombinant UMI read abundance (log10)” value was 0.928.
For “CGAGCATCATGGACCGGTTTTCCCGGTAATCCGTATTTGCT (site CGAACATCTAG)”, the “recombinant UMI read abundance (log10)” value was 0.
For “CGAGCATCATGGACCGGTTTTCCCGGTAATCCGTATTTGCT (site CGACCATCTAG)”, the “recombinant UMI read abundance (log10)” value was 0.
For “CGAGCATCATGGACCGGTTTTCCCGGTAATCCGTATTTGCT (site CGAGCATCTAG)”, the “recombinant UMI read abundance (log10)” value was 1.79.
For “CGAGCATCATGGACCGGTTTTCCCGGTAATCCGTATTTGCT (site CGATCATCTAG)”, the “recombinant UMI read abundance (log10)” value was 0.
In the case of “CGAGGACCATGGACCGGTTTTCCCGGTAATCCGTATTTGCG (site CGAGGACCTCA)”, the “recombinant UMI read abundance (log10)” value is reported as 0.00306.
With “CGAGGACCATGGACCGGTTTTCCCGGTAATCCGTATTTGCG (site CGAGGACCTCC)” the “recombinant UMI read abundance (log10)” value was 0.00697.
With “CGAGGACCATGGACCGGTTTTCCCGGTAATCCGTATTTGCG (site CGAGGACCTCG)” the “recombinant UMI read abundance (log10)” value was 0.
For “CGAGGACCATGGACCGGTTTTCCCGGTAATCCGTATTTGCG (site CGAGGACCTCT)”, the “recombinant UMI read abundance (log10)” value was 0.00945.
In the case of “CGAGGACCATGGACCGGTTTTCCCGGTAATCCGTATTTGGA (site CGAGGACCTAC)”, the “recombinant UMI read abundance (log10)” value is reported as 0.
In the case of “CGAGGACCATGGACCGGTTTTCCCGGTAATCCGTATTTGGA (site CGAGGACCTCC)”, the “recombinant UMI read abundance (log10)” value is reported as 0.0127.
For “CGAGGACCATGGACCGGTTTTCCCGGTAATCCGTATTTGGA (site CGAGGACCTGC)”, the “recombinant UMI read abundance (log10)” value was 0.
With “CGAGGACCATGGACCGGTTTTCCCGGTAATCCGTATTTGGA (site CGAGGACCTTC)” the “recombinant UMI read abundance (log10)” value was 0.0145.
For “CGAGGATCATGGACCGGTTTTCCCGGTAATCCGTATTTGGG (site CGAGGAACTCC)”, the “recombinant UMI read abundance (log10)” value was 0.0163.
With “CGAGGATCATGGACCGGTTTTCCCGGTAATCCGTATTTGGG (site CGAGGACCTCC)” the “recombinant UMI read abundance (log10)” value was 0.00347.
In the case of “CGAGGATCATGGACCGGTTTTCCCGGTAATCCGTATTTGGG (site CGAGGAGCTCC)”, the “recombinant UMI read abundance (log10)” value is reported as 0.
For “CGAGGATCATGGACCGGTTTTCCCGGTAATCCGTATTTGGG (site CGAGGATCTCC)”, the “recombinant UMI read abundance (log10)” value was 1.15.
With “CGAGTATCATGGACCGGTTTTCCCGGTAATCCGTATTTGAT (site CGAGTATCTAT)” the “recombinant UMI read abundance (log10)” value was 2.89.
In the case of “CGAGTATCATGGACCGGTTTTCCCGGTAATCCGTATTTGAT (site CTAGTATCTGT)”, the “recombinant UMI read abundance (log10)” value is reported as 0.
In the case of “CGATAATCATGGACCGGTTTTCCCGGTAATCCGTATTTGCG (site CGATAATCTCG)”, the “recombinant UMI read abundance (log10)” value is reported as 3.34.
For “CGATAATCATGGACCGGTTTTCCCGGTAATCCGTATTTGCG (site CGATCATCTAG)”, the “recombinant UMI read abundance (log10)” value was 0.
In the case of “CGATCAACATGGACCGGTTTTCCCGGTAATCCGTATTTGTT (site CGATCAACTAA)”, the “recombinant UMI read abundance (log10)” value is reported as 0.0564.
For “CGATCAACATGGACCGGTTTTCCCGGTAATCCGTATTTGTT (site CGATCCACTAA)”, the “recombinant UMI read abundance (log10)” value was 0.0118.
For “CGATCAACATGGACCGGTTTTCCCGGTAATCCGTATTTGTT (site CGATCGACTAA)”, the “recombinant UMI read abundance (log10)” value was 0.00905.
In the case of “CGATCAACATGGACCGGTTTTCCCGGTAATCCGTATTTGTT (site CGATCTACTAA)”, the “recombinant UMI read abundance (log10)” value is reported as 0.00984.
In the case of “CGATCACCATGGACCGGTTTTCCCGGTAATCCGTATTTGAT (site CGATCACCTAT)”, the “recombinant UMI read abundance (log10)” value is reported as 0.00371.
In the case of “CGATCACCATGGACCGGTTTTCCCGGTAATCCGTATTTGAT (site CGATCATCTAG)”, the “recombinant UMI read abundance (log10)” value is reported as 0.
In the case of “CGATCATCATGGACCGGTTTTCCCGGTAATCCGTATTTGCT (site ACATCATCTAG)”, the “recombinant UMI read abundance (log10)” value is reported as 1.28.
For “CGATCATCATGGACCGGTTTTCCCGGTAATCCGTATTTGCT (site AGAGCATCTAG)”, the “recombinant UMI read abundance (log10)” value was 0.
For “CGATCATCATGGACCGGTTTTCCCGGTAATCCGTATTTGCT (site AGATCAGCTAG)”, the “recombinant UMI read abundance (log10)” value was 0.00274.
With “CGATCATCATGGACCGGTTTTCCCGGTAATCCGTATTTGCT (site AGATCATCTAA)” the “recombinant UMI read abundance (log10)” value was 0.00548.
For “CGATCATCATGGACCGGTTTTCCCGGTAATCCGTATTTGCT (site AGATCATCTAG)”, the “recombinant UMI read abundance (log10)” value was 2.17.
For “CGATCATCATGGACCGGTTTTCCCGGTAATCCGTATTTGCT (site AGATCATCTTG)”, the “recombinant UMI read abundance (log10)” value was 0.
For “CGATCATCATGGACCGGTTTTCCCGGTAATCCGTATTTGCT (site AGATCTTCTAG)”, the “recombinant UMI read abundance (log10)” value was 0.
For “CGATCATCATGGACCGGTTTTCCCGGTAATCCGTATTTGCT (site AGATTATCTAG)”, the “recombinant UMI read abundance (log10)” value was 0.017.
With “CGATCATCATGGACCGGTTTTCCCGGTAATCCGTATTTGCT (site AGGTCATCTAG)” the “recombinant UMI read abundance (log10)” value was 0.
In the case of “CGATCATCATGGACCGGTTTTCCCGGTAATCCGTATTTGCT (site CAAACATCTAG)”, the “recombinant UMI read abundance (log10)” value is reported as 1.6.
With “CGATCATCATGGACCGGTTTTCCCGGTAATCCGTATTTGCT (site CAATCACCTAG)” the “recombinant UMI read abundance (log10)” value was 0.
With “CGATCATCATGGACCGGTTTTCCCGGTAATCCGTATTTGCT (site CAATCATCTAG)” the “recombinant UMI read abundance (log10)” value was 1.62.
In the case of “CGATCATCATGGACCGGTTTTCCCGGTAATCCGTATTTGCT (site CAATCATCTAT)”, the “recombinant UMI read abundance (log10)” value is reported as 0.
In the case of “CGATCATCATGGACCGGTTTTCCCGGTAATCCGTATTTGCT (site CAATCATCTGG)”, the “recombinant UMI read abundance (log10)” value is reported as 0.
In the case of “CGATCATCATGGACCGGTTTTCCCGGTAATCCGTATTTGCT (site CAATCGTCTAG)”, the “recombinant UMI read abundance (log10)” value is reported as 0.00456.
With “CGATCATCATGGACCGGTTTTCCCGGTAATCCGTATTTGCT (site CAATGATCTAG)” the “recombinant UMI read abundance (log10)” value was 0.
For “CGATCATCATGGACCGGTTTTCCCGGTAATCCGTATTTGCT (site CATTCATCTAG)”, the “recombinant UMI read abundance (log10)” value was 1.44.
For “CGATCATCATGGACCGGTTTTCCCGGTAATCCGTATTTGCT (site CCAGCATCTAG)”, the “recombinant UMI read abundance (log10)” value was 0.0355.
In the case of “CGATCATCATGGACCGGTTTTCCCGGTAATCCGTATTTGCT (site CCATCAGCTAG)”, the “recombinant UMI read abundance (log10)” value is reported as 0.
With “CGATCATCATGGACCGGTTTTCCCGGTAATCCGTATTTGCT (site CCATCATCTAA)” the “recombinant UMI read abundance (log10)” value was 0.
With “CGATCATCATGGACCGGTTTTCCCGGTAATCCGTATTTGCT (site CCATCATCTAG)” the “recombinant UMI read abundance (log10)” value was 0.987.
For “CGATCATCATGGACCGGTTTTCCCGGTAATCCGTATTTGCT (site CCATCATCTTG)”, the “recombinant UMI read abundance (log10)” value was 0.
With “CGATCATCATGGACCGGTTTTCCCGGTAATCCGTATTTGCT (site CCATCTTCTAG)” the “recombinant UMI read abundance (log10)” value was 0.
With “CGATCATCATGGACCGGTTTTCCCGGTAATCCGTATTTGCT (site CCATTATCTAG)” the “recombinant UMI read abundance (log10)” value was 0.
For “CGATCATCATGGACCGGTTTTCCCGGTAATCCGTATTTGCT (site CCGTCATCTAG)”, the “recombinant UMI read abundance (log10)” value was 0.747.
In the case of “CGATCATCATGGACCGGTTTTCCCGGTAATCCGTATTTGCT (site CGAACACCTAG)”, the “recombinant UMI read abundance (log10)” value is reported as 0.
With “CGATCATCATGGACCGGTTTTCCCGGTAATCCGTATTTGCT (site CGAACATCTAG)” the “recombinant UMI read abundance (log10)” value was 0.278.
In the case of “CGATCATCATGGACCGGTTTTCCCGGTAATCCGTATTTGCT (site CGAACATCTAT)”, the “recombinant UMI read abundance (log10)” value is reported as 0.00401.
For “CGATCATCATGGACCGGTTTTCCCGGTAATCCGTATTTGCT (site CGAACATCTGG)”, the “recombinant UMI read abundance (log10)” value was 0.
With “CGATCATCATGGACCGGTTTTCCCGGTAATCCGTATTTGCT (site CGAACGTCTAG)” the “recombinant UMI read abundance (log10)” value was 0.00334.
For “CGATCATCATGGACCGGTTTTCCCGGTAATCCGTATTTGCT (site CGAAGATCTAG)”, the “recombinant UMI read abundance (log10)” value was 0.
For “CGATCATCATGGACCGGTTTTCCCGGTAATCCGTATTTGCT (site CGACAATCTAG)”, the “recombinant UMI read abundance (log10)” value was 0.437.
In the case of “CGATCATCATGGACCGGTTTTCCCGGTAATCCGTATTTGCT (site CGACCAACTAG)”, the “recombinant UMI read abundance (log10)” value is reported as 0.00386.
For “CGATCATCATGGACCGGTTTTCCCGGTAATCCGTATTTGCT (site CGACCATCTAC)”, the “recombinant UMI read abundance (log10)” value was 0.
In the case of “CGATCATCATGGACCGGTTTTCCCGGTAATCCGTATTTGCT (site CGACCATCTAG)”, the “recombinant UMI read abundance (log10)” value is reported as 2.55.
For “CGATCATCATGGACCGGTTTTCCCGGTAATCCGTATTTGCT (site CGACCATCTCG)”, the “recombinant UMI read abundance (log10)” value was 0.019.
In the case of “CGATCATCATGGACCGGTTTTCCCGGTAATCCGTATTTGCT (site CGACCCTCTAG)”, the “recombinant UMI read abundance (log10)” value is reported as 0.00441.
With “CGATCATCATGGACCGGTTTTCCCGGTAATCCGTATTTGCT (site CGAGCAGCTAG)” the “recombinant UMI read abundance (log10)” value was 0.
For “CGATCATCATGGACCGGTTTTCCCGGTAATCCGTATTTGCT (site CGAGCATCTAA)”, the “recombinant UMI read abundance (log10)” value was 0.0187.
With “CGATCATCATGGACCGGTTTTCCCGGTAATCCGTATTTGCT (site CGAGCATCTAG)” the “recombinant UMI read abundance (log10)” value was 0.
In the case of “CGATCATCATGGACCGGTTTTCCCGGTAATCCGTATTTGCT (site CGAGCATCTTG)”, the “recombinant UMI read abundance (log10)” value is reported as 0.
With “CGATCATCATGGACCGGTTTTCCCGGTAATCCGTATTTGCT (site CGAGCTTCTAG)” the “recombinant UMI read abundance (log10)” value was 0.
In the case of “CGATCATCATGGACCGGTTTTCCCGGTAATCCGTATTTGCT (site CGAGTATCTAG)”, the “recombinant UMI read abundance (log10)” value is reported as 0.
For “CGATCATCATGGACCGGTTTTCCCGGTAATCCGTATTTGCT (site CGATAAACTAG)”, the “recombinant UMI read abundance (log10)” value was 0.0203.
